Assays:
[1] = system: normal cells or intact mitochondria; conditions: very high concentrations (above 25 μM); Gill, Mali, Kuroda, Hassinen; cited from earlier work
[2] = system: mitochondrial complex I respiration in MELAS neuronal cybrid cells; assay: Complex I linked respiration in permeabilized MELAS cybrid cells (Oroboros oxygraph); type: cell-based, human; conditions: 48 h exposure, low glucose medium (0.5 g/l)
Method: FIG. 6: Effect of DSF on mitochondrial complex I respiration in MELAS neuronal cybrid cells after 48 h exposure in low glucose medium (0.5 g/l).
FIG. 7: Effect of DSF at 10 nM after 48 h exposure on mitochondrial complex I (left) and complex IV (right) respiration in permeabilized MELAS neuronal cybrid cells, in low glucose medium (0.5 g/l).
Cellular oxygen consumption was measured at 37° C. in MELAS cybrid cells treated vs untreated mutant cells on a high-resolution oxygraph (Oroboros), as described elsewhere (Desquiret-Dumas et al., 2012).
Briefly treated and untreated mutant cells were trypsinized and the pellet was resuspended in the respiratory buffer (KH2PO4 10 mM, mannitol 300 mM, KCl 10 mM, MgCl2 5 mM, pH 7.4) containing 15 μg/million cells of digitonin. Cells were incubated at room temperature during 2.5 minutes and the digitonin action was stopped by adding five volumes of the respiration buffer supplemented with 1 mg/ml of BSA. […] The oxygen consumption was measured in state II (5 mM malate+pyruvate), state III (5 mM malate+pyruvate+1.5 mM ADP+0.5 mM NAD or 5 mM succinate+10 μM rotenone+1.5 mM ADP+0.5 mM NAD), state IV (8 μg/ml oligomycin) and maximal cytochrome c oxidase capacity (4 mM ascorbate+0.2 mM TMPD). After oxygraphic measurement, […] of cell suspension was removed from the chamber and the protein concentration was measured using bicinchoninic acid.

[3] = system: neuronal MELAS cybrid cells; assay: Lactate production in MELAS cybrid cells; type: cell-based, human; conditions: FIG. 8, MELAS cybrids
Method: FIG. 8: Determination of the maximal DSF concentration nontoxic for lactate production in neuronal MELAS cybrid cells. Range of DSF concentrations from 100 nM to 10 μM.
Lactate concentrations in the culture media were determined by spectrophotometry on a Hitachi-Roche apparatus following the recommendations of the manufacturer (Roche Diagnosis, Bale, Switzerland). Increased lactate concentration in supernatant of cell culture is witnessing glycolytic adaptation at the expense of mitochondrial function with reduced oxidative mitochondrial metabolism correlated with high concentrations and drug toxicity of DSF.

[4] = system: JCP239 NARP (T8993G) cybrid cell line; assay: NARP cybrid growth in glucose-deprived medium; type: cell-based, human; conditions: FIG. 3, low concentrations (from 1 nM), 5 days
Method: FIG. 3: Effect of DSF on NARP cybrid cell lines (JCP239 NARP (T8993G)) grown in glucose deprived medium. DHLA (dihydrolipoic acid) was used as a positive control, as in previous studies (Couplan E et al. & Aiyar R S et al.). Various concentrations of DSF were tested as indicated. After 5 days of treatment by DSF, or DMSO (negative control), or DHLA (positive control), followed by a trypsin treatment, the number of living cells was determined using a Scepter Counter (Millipore). All cell counts were expressed relative to DMSO values set at 100%. This experiment has been repeated two times in triplicates and error bars represent the standard deviation. For each condition, the mean values of the resulting six points is indicated and compared to the negative control (DMSO-treated cells) using the Student's t-test (*P=0.0153; **P=0.0025; ***P<0.0001). […]

TNFα-induced cell death = conditions: Zhao et al. 2000; cited from earlier work
[5] = system: A29G, shy1 and coa6 yeast mutant strains; assay: Yeast respiration, O2 consumption rate (Hansatech electrode); type: cell-based, Saccharomyces cerevisiae; conditions: FIG. 2; 200 nM for A29G, 300 nM for shy1 and coa6 mutants; with or without CCCP
Description: FIG. 2: Effect of DSF on O2 consumption rate (VO2, nmol O2 10^7 cell/min) of various yeast mutant strains, with or without CCCP. The data are the means±SEM of at least three independent experiments. The significance of variations among samples and controls was estimated using Anova multifactorial test: Tukey; (* P value<0.05; ** P<0.01; *** P<0.001; **** P<0.0001)).
The respiratory intensity corresponds to the amount of oxygen consumed relative to time and to the quantity of cells. It reflects the oxidative metabolism of cells. Oxygen consumption was measured using a Hansatech electrode. Cells were grown for 7-8 generations at 28° C. for 24 or 48 h in YPE medium (1% Yeast Extract, 0.5% Bacto Peptone, 2% ethanol) or galactose medium (1% Yeast Extract, 0.5% Bacto Peptone, 2% galactose) supplemented with either DMSO or DSF (200 nM for A29G; 300 nM for shy1 and coati mutants). […] 02 consumption was recorded with or without CCCP (Carbonyl Cyanide m-Chloro-Phenyl hydrazine; an uncoupling agent that dissipates the proton gradient that is established during the normal activity of the respiratory chain. In the presence of CCCP, the maintenance of an electrical potential across the inner mitochondrial membrane is impossible and respiration becomes maximal. The 02 consumption rate was calculated based on the linear part of 02 consumption.

[6] = in e.g. alcohol or chloroform; cited from earlier work
control cybrids (JCP213) = assay: Control cybrid growth in glucose-deprived medium; type: cell-based, human; conditions: same range of concentration
Method: The cybrid cell lines JCP213 (WT control) and JCP239 (NARP T8993G, Manfredi G et al.) were grown in high glucose (4.5 g/L final concentration) DMEM (supplemented with fetal bovine serum—FBS—at 5% final concentration, sodium pyruvate at 1 mM final concentration, L-glutamine at 4 mM final concentration and uridine at 200 μM final concentration) and then shifted in the same DMEM-based medium except that it is deprived of glucose to encourage the cells to rely on OXPHOS (OXidative PHOSphorylation) rather than glycolysis, supplemented with: • various concentrations of DSF; or • as control, with equivalent quantity of DMSO (compound vehicle, negative control); or • with 150 μM dihydrolipoic acid (DHLA, positive control, as in previous studies (Couplan E et al. & Aiyar R S et al.). All the cells were grown at 37° C. in presence of 5% CO2.

CCN(CC)C(=S)SSC(=S)N(CC)CC [DSF, 1-(diethylthiocarbamoyldisulfanyl)-N,N-diethyl-methanethioamide]
effect on mitochondrial function [1]: affect mitochondrial function | effect on complex I linked respiration ([2]; FIG. 6, various concentrations): increases complex I linked respiration | effect on complex I linked respiration ([2]; FIG. 7, 10 nM, permeabilized cells): increases mitochondrial complex I | DSF concentration with impact on lactate production (drug toxicity) ([3]; also at 3 μM or 10 μM): ≥ 1 µM | DSF concentration with no impact on lactate production ([3]; range 100 nM to 10 μM): lower than 1 μM | effect on growth of NARP cybrids [4]: significant positive effect | effect on TNFα-induced cell death (TNFα-induced cell death): inhibits TNFα-induced cell death | effect on yeast respiration (O2 consumption rate) [5]: increases the yeast respiration | solubility [6]: high solubility | effect on growth of control cybrids (control cybrids (JCP213)): no effect
